Measured values taken from patent publication US6949516B2, “Dipeptide apoptosis inhibitors and the use thereof” (Cytovia, Inc., priority 1997, dated 2005).

How the values were obtained:
HeLa cells = assay: Cell death assay with HeLa cells, qualitative (phase contrast microscopy), TNF-α/CHX challenge; format: cell-based; conditions: for cytoprotection of HeLa cells from apoptotic effects of TNF-α and CHX (microscopy): 24 hour incubation
Description: The cytoprotective properties of Cbz-Val-Asp(OMe)CH2F were tested using HeLa cells challenged with tumor necrosis factor-alpha (TNF-α) and cycloheximide (CHX). This is a well-characterized cell culture model of apoptosis which is commonly used to analyze anti-apoptotic agents. Two types of experiments were performed: a qualitative assessment of cell death by visualization of the cells using phase contrast microscopy; and a quantitative assessment of cell death using the fluorescent dye calcein AM.
For photomicroscopy, HeLa cells are seeded in 12-well multidishes at a density of 100,000 cells per well in Minimal Essential Medium containing 2 mM glutamine and 10% fetal bovine serum. 24 hours later the plating medium is removed and fresh medium is added containing the cytoprotective test compound at various concentrations. The cells are pre-incubated with test compound for 2 hours at 37° C. in a CO2 incubator and then TNF-α and CHX are added at final concentrations of 25 ng/mL and 30 μg/mL, respectively. After a 24 hour incubation period, the cells are examined visually for evidence of cell death based on cell shape and degree of adherence. Cells are considered dead if they have become rounded up and phase bright and have detached from the substratum. Cells are considered alive if they have retained their normal morphology and remain attached to the substratum.
All of these compounds are the methyl ester derivatives. […] At 50 μM, the related peptides BOC-Asp(OMe)-CH2F (FIG. 1C) and Cbz-Glu(OMe)-Val-Asp(OMe)-CH2F (FIG. 1E) are also protective.

[1] = test system: mouse liver apoptosis model; assay: Mouse liver apoptosis model (antiFas-induced lethality); format: in vivo; conditions: mice
Description: The in vivo activity of the cell death inhibitors of the invention can be tested using the “mouse liver apoptosis” model described by Rodriguez et al. (Rodriguez et al., J. Exp. Med., 184:2067-2072 (1996)). In this model, mice are treated intravenously (IV) with an antiFas antibody which induces massive apoptosis in the liver and other organs, leading to generalized organ failure and death. This model is useful for indirectly testing the systemic bioavailability of the cell death inhibitors of the invention, as well as their in vivo anti-apoptotic properties. The cell death inhibitors of the invention therefore can be used to reduce or prevent apoptosis of liver cells (Jones et al. Hepatology 27: 1632-42 (1998)) such as in sepsis (Jaeschke et al. J. Immunol. 160: 3480-3486 (1998)) and hereditary tyrosinemia type 1 (HT1) (Kubo et al. Prov. Natl. Acad Sci. USA, 95: 9552-9557 (1998). The cell death inhibitors of the invention also can be used to treat hepatitis (Suzuki, Proc. Soc. Exp. Biol. Med. 217: 450-454 (1998)).
Three to four week old female mice were used in the studies. Liver degeneration was induced by intravenous injection with 2-6 μg of a purified hamster anti-mouse Fas monoclonal antibody (clone Jo2, Pharmingen) against mouse Fas antigen diluted in 80 μl of phosphate buffered physiological saline (Rodriguez, et al., 1996). Mortality was used as the end point to assess liver degeneration. Cbz-Val-Asp-CH2F was formulated in Tris buffer for intravenous infusion and tested at a dose of 1-10 mg/kg given IV via the tail vein. Ten minutes later, animals were injected with Fas antibody. Mortality was counted at 30 mins, 1, 3 and 24 h. For each compound there were groups of control animals that receive Fas antibody only.

Caspase-6 = biological target: T1, Caspase-6 (Homo sapiens, UniProt P55212); assay: Recombinant caspase assay with Ac-DEVD-AMC, caspase-6; format: biochemical; conditions: 10 μM Ac-DEVD-AMC, 30 minutes at 37° C.
T1 construct: purchased PharMington (PharMingen, a Becton division company, San Diego, Calif.)
T1 sequence (P55212 24-179 limits assumed): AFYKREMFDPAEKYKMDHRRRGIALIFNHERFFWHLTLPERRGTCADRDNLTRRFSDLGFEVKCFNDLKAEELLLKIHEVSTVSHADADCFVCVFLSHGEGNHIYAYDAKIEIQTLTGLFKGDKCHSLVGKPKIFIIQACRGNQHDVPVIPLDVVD
Description: (§1) The inhibitory activity of Cbz-Val-Asp-CH2F in recombinant caspase 3, 6, 7 and 8 obtained from PharMington (a Becton division company, San Diego, Calif.) were measured using Ac-DEVD-AMC (SEQ ID NO:1). The amount of each enzyme per assay was as following: 1 ng caspase3, 15 ng caspase6, 2 ng caspase7 and 60 ng caspase8. The enzyme reaction was conducted in 96-well plate using a caspase buffer (20 mM PIPES, 100 mM NaCl, 10 mM DTT, 1 mM EDTA, 0.1% CHAPS and 10% sucrose, pH 7.2) and the reaction was initiated by adding 10 μM Ac-DEVD-AMC (SEQ ID NO:1) (purchased from Quality Controlled Biochemicals, Inc. Hopkinton, Mass.). Twelve concentrations of Cbz-Val-Asp-CH2F ranged from 30 μM to […] were tested after incubation of the compound with recombinant caspases for 30 minutes at 37° C. […] The data was analyzed using GraphPrism software.

Caspase-7 = biological target: T2, Caspase-7 (Homo sapiens, UniProt P55210); assay: Recombinant caspase assay with Ac-DEVD-AMC, caspase-7; format: biochemical; conditions: 10 μM Ac-DEVD-AMC, 30 minutes at 37° C.
T2 construct: purchased PharMington (PharMingen, a Becton division company, San Diego, Calif.)
T2 sequence (P55210 24-198 limits assumed): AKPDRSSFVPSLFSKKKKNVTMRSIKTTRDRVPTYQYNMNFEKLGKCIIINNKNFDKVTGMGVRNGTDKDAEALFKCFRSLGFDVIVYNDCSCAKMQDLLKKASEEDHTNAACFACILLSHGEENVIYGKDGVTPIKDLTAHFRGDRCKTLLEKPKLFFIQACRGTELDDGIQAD
Description: as §1

Compound	cytoprotection of HeLa cells from apoptotic effects of TNF-α and CHX (microscopy) (HeLa cells; 0.5 μM)	cytoprotection of HeLa cells from apoptotic effects of TNF-α and CHX (microscopy) (HeLa cells; 5 μM)	cytoprotection of HeLa cells from apoptotic effects of TNF-α and CHX (microscopy) (HeLa cells; 50 μM)	protective concentration, fold lower than other putative anti-apoptotic agents (HeLa cells; HeLa cells, TNF-α/CHX-induced apoptosis) [fold]	induction of the liver enzymes SPGT and SGOT ([1]; antiFas, separate studies)	protection from antiFas-induced lethality ([1]; single 1 mg/kg IV dose, up to 1 h after antibody administration)	survival ([1]; up to 24 h after antiFas) [%]	IC50 (Caspase-6) [nM]	IC50 (Caspase-7) [nM]
COC(=O)CC(NC(=O)C(NC(=O)OCc1ccccc1)C(C)C)C(=O)CF (stereo not drawn) [Cbz-Val-Asp(OMe)-CH2F, Z-Val-Asp-fmk Methyl Ester]	still an effective cytoprotectant	surprisingly strong cytoprotective action	completely protects	10 to 100	–	–	–	–	–
CC(C)[C@H](NC(=O)OCc1ccccc1)C(=O)NC(CC(=O)O)C(=O)CF (stereo partly drawn) [Cbz-Val-Asp-CH2F, Z-Val-Asp-fmk]	–	–	–	–	attenuation	completely protected	28	18.4	6.8
